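Method: 48-hour compound exposure of cells in 96-well plates, five concentrations, linear interpolation of endpoints. GI50 is the concentration that inhibits growth by half.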 The source made the active and inactive calls. No stated cut-off is given here; in the data, active = GI50 up to about 1.1 µM and inactive = higher.
What was measured:
Experiment in all cases: NCI-60 cell line screen, 48 h
M14 = system: M14
COLO 205 = system: COLO 205
A549 = system: A549
SN12C = system: SN12C
HOP-92 = system: HOP-92
HOP-62 = system: HOP-62
NCI/ADR-RES = system: NCI/ADR-RES
HCC 2998 = system: HCC 2998
HT-29 = system: HT-29
NCI-H460 = system: NCI-H460
NCI-H226 = system: NCI-H226
EKVX = system: EKVX
OVCAR-8 = system: OVCAR-8
Malme-3M = system: Malme-3M
SF-295 = system: SF-295
NCI-H522 = system: NCI-H522
SK-MEL-2 = system: SK-MEL-2
SNB-75 = system: SNB-75
TK-10 = system: TK-10

Measured: GI50

O=c1[nH]nc(Cc2ccc(Cl)cc2)n1/N=C/c1cccs1
inactive: M14 > 100 µM | COLO 205 > 100 µM | A549 64.9 µM | SN12C 29.2 µM | HOP-92 24.6 µM | HOP-62 22.1 µM | NCI/ADR-RES 50.5 µM | HCC 2998 > 100 µM | HT-29 14 µM | NCI-H460 > 100 µM | NCI-H226 43.5 µM | EKVX 23 µM | OVCAR-8 27.5 µM | Malme-3M > 100 µM | SF-295 18.9 µM | NCI-H522 23.7 µM | SK-MEL-2 22.4 µM | SNB-75 19.1 µM

Cc1ccc(C)n1-c1ccccc1C1C=Cn2c3c1c(=O)c(OC(C)C)c(OC(C)C)c-3n[nH]c2=O (centres undefined)
inactive: M14 25.1 µM | COLO 205 13.1 µM | A549 23.4 µM | SN12C 42 µM | HOP-92 84.7 µM | HOP-62 40 µM | NCI/ADR-RES 32.6 µM | TK-10 44 µM | HCC 2998 23.6 µM | HT-29 19.9 µM | NCI-H460 37.6 µM | NCI-H226 21.4 µM | EKVX 28.4 µM | OVCAR-8 33.7 µM | Malme-3M 18.7 µM | SF-295 27 µM | NCI-H522 17 µM | SK-MEL-2 20 µM | SNB-75 25.4 µM

CC(NC(=O)C(OC(=O)C(C)NC(=O)OC(C)(C)C)C(C)C)C(=O)OC(C(=O)O)C(C)C (centres undefined)
inactive: M14 > 100 µM | COLO 205 > 100 µM | A549 > 100 µM | SN12C > 100 µM | HOP-92 > 100 µM | HOP-62 > 100 µM | NCI/ADR-RES > 100 µM | TK-10 > 100 µM | HCC 2998 > 100 µM | HT-29 > 100 µM | NCI-H460 > 100 µM | NCI-H226 > 100 µM | EKVX > 100 µM | OVCAR-8 > 100 µM | Malme-3M > 100 µM | SF-295 > 100 µM | NCI-H522 > 100 µM | SK-MEL-2 > 100 µM | SNB-75 > 100 µM

Oc1c(C2=NNC(c3ccc(Cl)cc3Cl)C2)ccc2ccccc12 (centres undefined)
inactive: M14 26.5 µM | COLO 205 32 µM | A549 29 µM | SN12C 32.6 µM | HOP-92 31.7 µM | HOP-62 38.7 µM | NCI/ADR-RES 22 µM | TK-10 66.2 µM | HCC 2998 34.5 µM | HT-29 31.4 µM | NCI-H460 30.1 µM | NCI-H226 50.4 µM | OVCAR-8 29.4 µM | Malme-3M 17.9 µM | SF-295 28.3 µM | NCI-H522 24 µM | SK-MEL-2 35.8 µM | SNB-75 39.9 µM

CC(C(=O)O)c1ccc(-c2ccccc2)c(F)c1 (centres undefined) [FLURBIPROFEN]
inactive: M14 > 100 µM | COLO 205 > 100 µM | A549 > 100 µM | SN12C > 100 µM | HOP-92 > 100 µM | HOP-62 > 10 µM | NCI/ADR-RES > 100 µM | TK-10 > 100 µM | HCC 2998 > 100 µM | HT-29 > 100 µM | NCI-H460 > 100 µM | NCI-H226 > 100 µM | EKVX > 100 µM | OVCAR-8 > 100 µM | Malme-3M > 100 µM | SF-295 > 100 µM | NCI-H522 > 100 µM | SK-MEL-2 > 100 µM | SNB-75 > 100 µM

COc1ccc2c(c1O)[C@@]13CCCC=C1[C@@H](C2)[N+](C)(C)CC3
inactive: M14 > 100 µM | COLO 205 43.6 µM | A549 > 100 µM | SN12C > 100 µM | HOP-92 > 100 µM | HOP-62 > 100 µM | NCI/ADR-RES > 100 µM | TK-10 > 100 µM | HCC 2998 > 100 µM | HT-29 > 100 µM | NCI-H460 > 100 µM | NCI-H226 > 100 µM | EKVX > 100 µM | OVCAR-8 > 100 µM | Malme-3M > 100 µM | SF-295 > 100 µM | NCI-H522 63 µM | SK-MEL-2 > 100 µM | SNB-75 77.6 µM

O=C(NCc1ccc(Cl)c(Cl)c1)c1nc2ccccc2nc1NCc1ccc(Cl)c(Cl)c1
inactive: M14 > 100 µM | COLO 205 > 100 µM | A549 > 100 µM | SN12C > 100 µM | HOP-92 > 100 µM | HOP-62 83.6 µM | NCI/ADR-RES > 100 µM | TK-10 > 100 µM | HCC 2998 > 100 µM | HT-29 > 100 µM | NCI-H460 > 100 µM | NCI-H226 > 100 µM | EKVX > 100 µM | OVCAR-8 > 100 µM | SF-295 > 100 µM | NCI-H522 > 100 µM | SK-MEL-2 > 100 µM | SNB-75 > 100 µM

O=C1NC2(CN3CCC2CC3)C(=O)N1CN(Cc1ccccc1)c1ccccc1 (centres undefined)
inactive: M14 33.7 µM | COLO 205 92.7 µM | A549 81.1 µM | SN12C 71 µM | HOP-92 > 100 µM | HOP-62 > 100 µM | NCI/ADR-RES > 100 µM | TK-10 > 100 µM | HCC 2998 39.6 µM | HT-29 56.6 µM | NCI-H460 29.4 µM | NCI-H226 > 100 µM | EKVX > 100 µM | OVCAR-8 57 µM | SF-295 > 100 µM | NCI-H522 94.6 µM | SK-MEL-2 > 100 µM | SNB-75 > 100 µM

COc1ccc2nc3cc(Cl)ccc3c(NCCNCCCNC(=O)c3cc(-c4ccccc4)nc4ccccc34)c2c1
inactive: M14 > 100 µM | COLO 205 > 100 µM | A549 > 100 µM | SN12C > 100 µM | HOP-92 > 100 µM | HOP-62 > 100 µM | NCI/ADR-RES > 100 µM | TK-10 > 100 µM | HCC 2998 > 100 µM | HT-29 22.6 µM | NCI-H460 > 100 µM | NCI-H226 > 100 µM | EKVX > 100 µM | OVCAR-8 > 100 µM | Malme-3M 97.5 µM | SF-295 > 100 µM | NCI-H522 > 100 µM | SNB-75 > 100 µM

O=c1c2ccccc2nc(Cc2nc(-c3ccc(Cl)cc3)cs2)n1-c1ccc(Cl)cc1
inactive: M14 > 100 µM | COLO 205 49.5 µM | A549 50.6 µM | HOP-92 9.64 µM | HOP-62 > 100 µM | NCI/ADR-RES 57.5 µM | TK-10 > 100 µM | HCC 2998 80 µM | HT-29 85.7 µM | NCI-H460 46.2 µM | NCI-H226 88.5 µM | EKVX 64.6 µM | OVCAR-8 82.6 µM | Malme-3M > 100 µM | SF-295 44.4 µM | NCI-H522 > 100 µM | SK-MEL-2 28.1 µM | SNB-75 79.6 µM

O=[N+]([O-])c1cccc(/N=N/c2c(O)c(S(=O)(=O)O)cc3cc(S(=O)(=O)O)ccc23)c1
inactive: M14 > 100 µM | COLO 205 > 100 µM | A549 > 100 µM | SN12C > 100 µM | HOP-92 > 100 µM | HOP-62 > 100 µM | NCI/ADR-RES > 100 µM | TK-10 > 100 µM | HCC 2998 > 100 µM | NCI-H460 > 100 µM | NCI-H226 > 100 µM | EKVX > 100 µM | OVCAR-8 > 100 µM | Malme-3M > 100 µM | SF-295 > 100 µM | NCI-H522 > 100 µM | SK-MEL-2 > 100 µM | SNB-75 > 100 µM

O=c1s[s+]([O-])c2ccccc12 (centres undefined)
inactive: M14 > 100 µM | COLO 205 > 100 µM | A549 > 100 µM | SN12C > 100 µM | HOP-92 > 100 µM | HOP-62 > 100 µM | NCI/ADR-RES > 100 µM | HCC 2998 > 100 µM | HT-29 > 100 µM | NCI-H460 46.8 µM | NCI-H226 > 100 µM | EKVX > 100 µM | OVCAR-8 > 100 µM | Malme-3M > 100 µM | SF-295 > 100 µM | NCI-H522 39.4 µM | SK-MEL-2 > 100 µM | SNB-75 > 100 µM

C=C(C)C(=O)O[C@H]1CC2=CC(CC(C)=C[C@H]3OC(=O)C(=C)C13)OC2=O (some centres undefined)
inactive: M14 29.4 µM | COLO 205 14.5 µM | A549 > 100 µM | SN12C 22.1 µM | HOP-92 16.4 µM | NCI/ADR-RES 38.3 µM | TK-10 8.02 µM | HCC 2998 35 µM | HT-29 17 µM | NCI-H460 31.1 µM | NCI-H226 > 100 µM | EKVX 20.6 µM | OVCAR-8 35.8 µM | Malme-3M 20.2 µM | SF-295 > 100 µM | NCI-H522 2.53 µM | SK-MEL-2 22.1 µM | SNB-75 > 100 µM

CC1(C)C(=O)C=CC2(C)C1CC(O)C1(C)C2CCC2(C)C(c3ccoc3)OC(=O)C3OC321 (centres undefined)
inactive: M14 32 µM | COLO 205 21.5 µM | A549 19.2 µM | SN12C 18.7 µM | HOP-92 16.4 µM | HOP-62 24.4 µM | NCI/ADR-RES 14.4 µM | TK-10 16 µM | HCC 2998 13.4 µM | HT-29 17.1 µM | NCI-H460 13.6 µM | NCI-H226 14.2 µM | EKVX 12.5 µM | OVCAR-8 13.3 µM | SF-295 20 µM | NCI-H522 11.5 µM | SK-MEL-2 11.8 µM | SNB-75 15.9 µM

CO[C@@H](c1ccccc1)[C@H](O)[C@](O)(c1ccccc1)P(=O)(OC)OC
inactive: M14 > 100 µM | COLO 205 > 100 µM | A549 > 100 µM | SN12C > 100 µM | HOP-92 91.6 µM | NCI/ADR-RES > 100 µM | TK-10 > 100 µM | HCC 2998 > 100 µM | HT-29 > 100 µM | NCI-H460 > 100 µM | NCI-H226 > 100 µM | EKVX > 100 µM | OVCAR-8 > 100 µM | Malme-3M > 100 µM | SF-295 > 100 µM | NCI-H522 > 100 µM | SK-MEL-2 > 100 µM | SNB-75 > 100 µM

— ChEMBL document CHEMBL1201862, “PubChem BioAssay data set” (2004)
